In the supplement of paper PMC10307832:

Legend:
Test in all cases: relative viability (nuclei count vs DMSO), 5 days (fraction); higher = more cells survive
UMC-11 = test system: UMC-11
Outline: (§1)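 Medians of duplicate plates are given as relative viability. That measure is the nuclei count in treated wells divided by the count in vehicle wells. Counts were taken on 4× images of lung cancer cell lines in 1536-well plates, 5 days after pin-tool dosing the day after seeding with one drug alone or a fixed anchor-drug dose plus five library-drug doses (not always all listed) in √10 steps.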

LCLC-103H = test system: LCLC-103H
Outline: as §1

HCC-827 = test system: HCC-827
Outline: as §1

NCI-H650 = test system: NCI-H650
Outline: as §1

NCI-H2347 = test system: NCI-H2347
Outline: as §1

NCI-H1975 = test system: NCI-H1975
Outline: as §1

NCI-H1355 = test system: NCI-H1355
Outline: as §1

RERF-LC-KJ = test system: RERF-LC-KJ
Outline: as §1

HCC-366 = test system: HCC-366
Outline: as §1

NCI-H1915 = test system: NCI-H1915
Outline: as §1

NCI-H2170 = test system: NCI-H2170
Outline: as §1

SK-MES-1 = test system: SK-MES-1
Outline: as §1

SW 1573 = test system: SW 1573
Outline: as §1

LC-2-ad = test system: LC-2-ad
Outline: as §1

NCI-H1993 = test system: NCI-H1993
Outline: as §1

SK-LU-1 = test system: SK-LU-1
Outline: as §1

NCI-H1755 = test system: NCI-H1755
Outline: as §1

A-427 = test system: A-427
Outline: as §1

NCI-H2342 = test system: NCI-H2342
Outline: as §1

NCI-H23 = test system: NCI-H23
Outline: as §1

NCI-H1734 = test system: NCI-H1734
Outline: as §1

NCI-H2228 = test system: NCI-H2228
Outline: as §1

Cc1csc(=NC2CCCCC2)n1/N=C/c1ccc(O)c(O)c1O [MIM1] + O=C(CCCCCCC(=O)Nc1ccccc1)NO [Vorinostat] (partner 1 µM)
relative viability (UMC-11; first compound 0.2 µM): 0.501
relative viability (UMC-11; first compound 0.6325 µM): 0.392
relative viability (UMC-11; first compound 2 µM): 0.438
relative viability (UMC-11; first compound 6.325 µM): 0.243
relative viability (UMC-11; first compound 20 µM): 0.147
relative viability (LCLC-103H; first compound 0.2 µM): 0.731
relative viability (LCLC-103H; first compound 0.6325 µM): 0.39
relative viability (LCLC-103H; first compound 2 µM): 0.768
relative viability (LCLC-103H; first compound 6.325 µM): 0.48
relative viability (LCLC-103H; first compound 20 µM): 0.342
relative viability (HCC-827; first compound 0.2 µM): 0.871
relative viability (HCC-827; first compound 0.6325 µM): 0.731
relative viability (HCC-827; first compound 2 µM): 0.777
relative viability (HCC-827; first compound 6.325 µM): 0.231
relative viability (HCC-827; first compound 20 µM): 0.349
relative viability (NCI-H650; first compound 0.2 µM): 0.481
relative viability (NCI-H650; first compound 0.6325 µM): 0.257
relative viability (NCI-H650; first compound 2 µM): 0.402
relative viability (NCI-H650; first compound 6.325 µM): 0.414
relative viability (NCI-H650; first compound 20 µM): 0.116
relative viability (NCI-H2347; first compound 0.2 µM): 0.68
relative viability (NCI-H2347; first compound 0.6325 µM): 0.643
relative viability (NCI-H2347; first compound 2 µM): 0.652
relative viability (NCI-H2347; first compound 6.325 µM): 0.449
relative viability (NCI-H2347; first compound 20 µM): 0.315
relative viability (NCI-H1975; first compound 0.2 µM): 0.682
relative viability (NCI-H1975; first compound 0.6325 µM): 0.708
relative viability (NCI-H1975; first compound 2 µM): 0.644
relative viability (NCI-H1975; first compound 6.325 µM): 0.239
relative viability (NCI-H1975; first compound 20 µM): 0.204
relative viability (NCI-H1355; first compound 0.2 µM): 0.673
relative viability (NCI-H1355; first compound 0.6325 µM): 0.604
relative viability (NCI-H1355; first compound 2 µM): 0.693
relative viability (NCI-H1355; first compound 6.325 µM): 0.544
relative viability (NCI-H1355; first compound 20 µM): 0.487
relative viability (RERF-LC-KJ; first compound 0.2 µM): 0.616
relative viability (RERF-LC-KJ; first compound 0.6325 µM): 0.558
relative viability (RERF-LC-KJ; first compound 2 µM): 0.507
relative viability (RERF-LC-KJ; first compound 6.325 µM): 0.317
relative viability (RERF-LC-KJ; first compound 20 µM): 0.225
relative viability (HCC-366; first compound 0.2 µM): 0.33
relative viability (HCC-366; first compound 2 µM): 0.243
relative viability (HCC-366; first compound 6.325 µM): 0.0699
relative viability (HCC-366; first compound 20 µM): 0.0271
relative viability (NCI-H1915; first compound 0.2 µM): 0.527
relative viability (NCI-H1915; first compound 0.6325 µM): 0.429
relative viability (NCI-H1915; first compound 2 µM): 0.442
relative viability (NCI-H1915; first compound 6.325 µM): 0.343
relative viability (NCI-H1915; first compound 20 µM): 0.17
relative viability (NCI-H2170; first compound 0.2 µM): 0.786
relative viability (NCI-H2170; first compound 0.6325 µM): 0.696
relative viability (NCI-H2170; first compound 2 µM): 0.748
relative viability (NCI-H2170; first compound 6.325 µM): 0.479
relative viability (NCI-H2170; first compound 20 µM): 0.138
relative viability (SK-MES-1; first compound 0.2 µM): 1.02
relative viability (SK-MES-1; first compound 0.6325 µM): 0.953
relative viability (SK-MES-1; first compound 2 µM): 0.959
relative viability (SK-MES-1; first compound 6.325 µM): 0.594
relative viability (SK-MES-1; first compound 20 µM): 0.2
relative viability (SW 1573; first compound 0.2 µM): 0.806
relative viability (SW 1573; first compound 0.6325 µM): 0.668
relative viability (SW 1573; first compound 2 µM): 0.773
relative viability (SW 1573; first compound 6.325 µM): 0.573
relative viability (SW 1573; first compound 20 µM): 0.131
relative viability (LC-2-ad; first compound 0.2 µM): 0.698
relative viability (LC-2-ad; first compound 0.6325 µM): 0.306
relative viability (LC-2-ad; first compound 2 µM): 0.777
relative viability (LC-2-ad; first compound 6.325 µM): 0.267
relative viability (LC-2-ad; first compound 20 µM): 0.204
relative viability (NCI-H1993; first compound 0.2 µM): 0.851
relative viability (NCI-H1993; first compound 0.6325 µM): 0.601
relative viability (NCI-H1993; first compound 2 µM): 0.601
relative viability (NCI-H1993; first compound 6.325 µM): 0.348
relative viability (NCI-H1993; first compound 20 µM): 0.413
relative viability (SK-LU-1; first compound 0.2 µM): 0.764
relative viability (SK-LU-1; first compound 0.6325 µM): 0.837
relative viability (SK-LU-1; first compound 2 µM): 0.957
relative viability (SK-LU-1; first compound 6.325 µM): 0.623
relative viability (SK-LU-1; first compound 20 µM): 0.393
relative viability (NCI-H1755; first compound 0.2 µM): 0.708
relative viability (NCI-H1755; first compound 0.6325 µM): 0.65
relative viability (NCI-H1755; first compound 2 µM): 0.792
relative viability (NCI-H1755; first compound 6.325 µM): 0.671
relative viability (NCI-H1755; first compound 20 µM): 0.296
relative viability (A-427; first compound 0.2 µM): 0.858
relative viability (A-427; first compound 0.6325 µM): 0.663
relative viability (A-427; first compound 2 µM): 0.849
relative viability (A-427; first compound 6.325 µM): 0.745
relative viability (A-427; first compound 20 µM): 0.312
relative viability (NCI-H2342; first compound 0.2 µM): 0.727
relative viability (NCI-H2342; first compound 0.6325 µM): 0.719
relative viability (NCI-H2342; first compound 2 µM): 0.774
relative viability (NCI-H2342; first compound 6.325 µM): 0.589
relative viability (NCI-H2342; first compound 20 µM): 0.905
relative viability (NCI-H23; first compound 0.2 µM): 0.55
relative viability (NCI-H23; first compound 0.6325 µM): 0.277
relative viability (NCI-H23; first compound 2 µM): 0.478
relative viability (NCI-H23; first compound 6.325 µM): 0.19
relative viability (NCI-H23; first compound 20 µM): 0.123
relative viability (NCI-H1734; first compound 0.2 µM): 0.911
relative viability (NCI-H1734; first compound 0.6325 µM): 0.582
relative viability (NCI-H1734; first compound 2 µM): 0.757
relative viability (NCI-H1734; first compound 6.325 µM): 0.442
relative viability (NCI-H1734; first compound 20 µM): 0.125
relative viability (NCI-H2228; first compound 0.2 µM): 0.641
relative viability (NCI-H2228; first compound 0.6325 µM): 0.909
relative viability (NCI-H2228; first compound 2 µM): 0.589
relative viability (NCI-H2228; first compound 6.325 µM): 0.19
relative viability (NCI-H2228; first compound 20 µM): 0.206
